Biological target: MthK (Methanothermobacter thermautotrophicus, UniProt O27564)
Type: biochemical

Row | Compound | IC50
1 | NCCCNCCCCNCCCN [SPM^4+] | 77 ± 6 µM
2 | NCCCCNCCCN [SPD^3+] | 860 ± 20 µM

— paper PMC7335011 (The Journal of General Physiology, 2020)
